# Assays:
# Vasopressin V2 receptor = Vasopressin V2 receptor (Homo sapiens, UniProt P30518)
# Prothrombin = Prothrombin (Homo sapiens, UniProt P00734); assay type: functional
# [1] = biological target: 3',5'-cyclic-AMP phosphodiesterase 4A (Homo sapiens, UniProt P27815); assay type: functional
# Thromboxane A2 receptor [2] = biological target: T1, Thromboxane A2 receptor (Homo sapiens, UniProt P21731); assay type: functional, cell-based
# T1 sequence (P21731 whole entry): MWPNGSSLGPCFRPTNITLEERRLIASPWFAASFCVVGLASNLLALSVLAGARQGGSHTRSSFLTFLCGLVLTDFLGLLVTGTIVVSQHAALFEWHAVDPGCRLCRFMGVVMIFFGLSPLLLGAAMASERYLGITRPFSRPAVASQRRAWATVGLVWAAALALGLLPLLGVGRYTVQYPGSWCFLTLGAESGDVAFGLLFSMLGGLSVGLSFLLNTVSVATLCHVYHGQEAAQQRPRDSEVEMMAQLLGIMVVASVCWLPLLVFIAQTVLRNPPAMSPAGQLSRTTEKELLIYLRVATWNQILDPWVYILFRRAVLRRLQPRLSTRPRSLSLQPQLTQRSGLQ
# Thromboxane A2 receptor [3] = biological target: T1, Thromboxane A2 receptor; assay type: functional, cell-based; remark: listed apart in the source
# Thromboxane A2 receptor [4] = biological target: T1, Thromboxane A2 receptor
# [5] = biological target: T2, Alpha-1A adrenergic receptor (Homo sapiens, UniProt P35348); assay type: functional, cell-based
# T2 sequence (P35348 whole entry): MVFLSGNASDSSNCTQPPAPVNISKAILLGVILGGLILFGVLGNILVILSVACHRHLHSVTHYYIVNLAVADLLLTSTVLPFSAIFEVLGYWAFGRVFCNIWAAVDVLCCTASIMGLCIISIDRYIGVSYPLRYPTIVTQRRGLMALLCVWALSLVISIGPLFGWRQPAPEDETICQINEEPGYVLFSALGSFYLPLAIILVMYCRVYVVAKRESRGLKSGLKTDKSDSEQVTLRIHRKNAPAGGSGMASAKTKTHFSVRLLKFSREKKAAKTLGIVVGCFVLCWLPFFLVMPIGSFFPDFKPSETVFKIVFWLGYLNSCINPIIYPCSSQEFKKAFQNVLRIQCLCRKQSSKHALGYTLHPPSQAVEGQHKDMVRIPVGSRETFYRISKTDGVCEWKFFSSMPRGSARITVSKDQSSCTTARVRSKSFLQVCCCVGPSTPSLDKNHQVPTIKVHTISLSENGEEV
# Histamine H3 receptor [6] = biological target: T3, Histamine H3 receptor (Homo sapiens, UniProt Q9Y5N1)
# T3 sequence (Q9Y5N1 whole entry): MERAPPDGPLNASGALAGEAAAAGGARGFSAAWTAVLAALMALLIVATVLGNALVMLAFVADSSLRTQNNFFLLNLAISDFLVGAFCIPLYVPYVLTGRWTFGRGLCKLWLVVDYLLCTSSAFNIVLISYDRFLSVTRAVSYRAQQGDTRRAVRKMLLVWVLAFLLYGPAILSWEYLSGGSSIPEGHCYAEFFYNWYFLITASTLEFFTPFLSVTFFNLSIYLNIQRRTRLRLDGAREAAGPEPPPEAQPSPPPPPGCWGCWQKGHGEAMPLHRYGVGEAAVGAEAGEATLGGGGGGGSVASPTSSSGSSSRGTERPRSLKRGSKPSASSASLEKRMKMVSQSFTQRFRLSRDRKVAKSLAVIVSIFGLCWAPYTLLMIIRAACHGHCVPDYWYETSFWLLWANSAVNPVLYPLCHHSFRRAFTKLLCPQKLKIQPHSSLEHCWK
# [7] = biological target: T2, Alpha-1A adrenergic receptor; assay type: functional, cell-based; remark: listed apart in the source
# [8] = biological target: T2, Alpha-1A adrenergic receptor; assay type: functional, cell-based; remark: listed apart in the source
# [9] = biological target: T4, Alpha-2A adrenergic receptor (Homo sapiens, UniProt P08913)
# T4 sequence (P08913 whole entry): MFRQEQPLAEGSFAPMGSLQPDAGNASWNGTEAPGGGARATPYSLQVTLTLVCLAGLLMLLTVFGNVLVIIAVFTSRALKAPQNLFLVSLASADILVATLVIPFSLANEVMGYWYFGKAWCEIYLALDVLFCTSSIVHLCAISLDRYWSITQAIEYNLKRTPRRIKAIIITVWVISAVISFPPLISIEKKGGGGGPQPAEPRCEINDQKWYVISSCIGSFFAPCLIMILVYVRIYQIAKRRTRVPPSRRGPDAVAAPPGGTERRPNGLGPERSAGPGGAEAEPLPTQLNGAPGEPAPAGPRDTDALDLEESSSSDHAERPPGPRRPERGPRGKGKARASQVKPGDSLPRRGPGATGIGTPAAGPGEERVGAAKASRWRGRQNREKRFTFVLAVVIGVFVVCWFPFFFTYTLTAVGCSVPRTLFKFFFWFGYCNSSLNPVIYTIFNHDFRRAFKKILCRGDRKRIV
# D(1A) dopamine receptor = D(1A) dopamine receptor (Homo sapiens, UniProt P21728)
# D(1A) dopamine receptor, sequence (P21728 whole entry): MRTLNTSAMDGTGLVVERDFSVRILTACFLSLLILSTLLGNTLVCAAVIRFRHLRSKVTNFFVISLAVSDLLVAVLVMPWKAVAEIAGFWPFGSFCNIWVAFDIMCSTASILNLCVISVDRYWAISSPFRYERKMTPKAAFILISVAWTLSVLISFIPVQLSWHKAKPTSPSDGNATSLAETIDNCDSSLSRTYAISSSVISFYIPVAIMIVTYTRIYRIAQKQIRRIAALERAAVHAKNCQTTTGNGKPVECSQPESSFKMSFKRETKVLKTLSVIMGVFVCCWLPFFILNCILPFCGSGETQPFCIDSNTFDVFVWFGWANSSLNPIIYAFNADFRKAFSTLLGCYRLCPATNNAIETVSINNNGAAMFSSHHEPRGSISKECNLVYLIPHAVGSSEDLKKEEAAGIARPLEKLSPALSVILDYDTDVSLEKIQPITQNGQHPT
# Histamine H3 receptor [10] = biological target: T3, Histamine H3 receptor; remark: listed apart in the source
# Mu-type opioid receptor = Mu-type opioid receptor (Homo sapiens, UniProt P35372)
# Mu-type opioid receptor, sequence (P35372 whole entry): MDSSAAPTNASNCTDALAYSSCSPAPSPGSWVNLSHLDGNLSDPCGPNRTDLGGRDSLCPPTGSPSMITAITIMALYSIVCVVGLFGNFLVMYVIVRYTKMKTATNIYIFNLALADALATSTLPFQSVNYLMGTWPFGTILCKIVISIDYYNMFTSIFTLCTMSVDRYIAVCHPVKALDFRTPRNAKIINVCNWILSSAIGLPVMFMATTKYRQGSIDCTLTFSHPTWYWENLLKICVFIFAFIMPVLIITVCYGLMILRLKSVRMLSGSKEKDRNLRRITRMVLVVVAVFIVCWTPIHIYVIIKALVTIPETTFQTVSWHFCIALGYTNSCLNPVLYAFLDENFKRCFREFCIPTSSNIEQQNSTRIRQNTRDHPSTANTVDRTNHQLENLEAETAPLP
# [11] = biological target: T5, Muscarinic acetylcholine receptor M1 (Homo sapiens, UniProt P11229); assay type: functional
# T5 sequence (P11229 whole entry): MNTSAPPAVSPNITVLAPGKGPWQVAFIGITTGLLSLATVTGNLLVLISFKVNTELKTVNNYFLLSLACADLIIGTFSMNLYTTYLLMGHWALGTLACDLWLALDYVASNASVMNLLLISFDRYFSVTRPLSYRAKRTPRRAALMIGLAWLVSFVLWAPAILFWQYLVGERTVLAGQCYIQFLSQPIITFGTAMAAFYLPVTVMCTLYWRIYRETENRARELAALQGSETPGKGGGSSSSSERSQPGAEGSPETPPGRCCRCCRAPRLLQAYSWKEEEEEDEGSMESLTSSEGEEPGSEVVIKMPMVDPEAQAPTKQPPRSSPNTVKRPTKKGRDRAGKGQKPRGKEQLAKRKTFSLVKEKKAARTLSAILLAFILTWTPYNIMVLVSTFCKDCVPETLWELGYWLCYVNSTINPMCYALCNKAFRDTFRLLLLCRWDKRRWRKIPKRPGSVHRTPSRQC
# [12] = biological target: T6, 5-hydroxytryptamine receptor 2A (Homo sapiens, UniProt P28223); assay type: functional, cell-based
# T6 sequence (P28223 whole entry): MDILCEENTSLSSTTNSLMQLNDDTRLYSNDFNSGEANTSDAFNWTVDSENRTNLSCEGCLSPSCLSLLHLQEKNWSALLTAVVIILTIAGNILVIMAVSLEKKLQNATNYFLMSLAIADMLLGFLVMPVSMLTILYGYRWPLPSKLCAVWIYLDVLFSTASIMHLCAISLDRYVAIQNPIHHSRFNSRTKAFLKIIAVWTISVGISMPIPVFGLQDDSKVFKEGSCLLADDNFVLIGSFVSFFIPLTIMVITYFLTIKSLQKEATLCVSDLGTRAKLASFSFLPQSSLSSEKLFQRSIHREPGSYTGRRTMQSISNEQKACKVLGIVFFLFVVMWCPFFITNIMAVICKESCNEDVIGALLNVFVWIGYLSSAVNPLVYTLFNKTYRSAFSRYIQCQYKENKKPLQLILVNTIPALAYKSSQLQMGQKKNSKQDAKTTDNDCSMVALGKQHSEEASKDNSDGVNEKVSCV
# [13] = biological target: T6, 5-hydroxytryptamine receptor 2A; assay type: functional, cell-based; remark: listed apart in the source
# [14] = biological target: 5-hydroxytryptamine receptor 2B (Homo sapiens, UniProt P41595); assay type: functional, cell-based
# 5-hydroxytryptamine receptor 2B, sequence (P41595 whole entry): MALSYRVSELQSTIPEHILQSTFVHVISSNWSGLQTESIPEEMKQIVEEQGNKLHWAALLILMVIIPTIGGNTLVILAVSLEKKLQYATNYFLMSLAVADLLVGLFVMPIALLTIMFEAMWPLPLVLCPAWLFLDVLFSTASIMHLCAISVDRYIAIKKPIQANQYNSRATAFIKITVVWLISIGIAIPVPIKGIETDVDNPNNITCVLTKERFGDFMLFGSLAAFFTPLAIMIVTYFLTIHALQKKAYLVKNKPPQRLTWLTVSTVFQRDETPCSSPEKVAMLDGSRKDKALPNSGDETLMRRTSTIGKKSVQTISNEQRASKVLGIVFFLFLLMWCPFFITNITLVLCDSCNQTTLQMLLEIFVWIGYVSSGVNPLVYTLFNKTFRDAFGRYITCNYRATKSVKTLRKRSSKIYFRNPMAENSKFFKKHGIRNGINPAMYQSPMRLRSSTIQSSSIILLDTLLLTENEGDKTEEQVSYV
# [15] = biological target: Gamma-aminobutyric acid receptor subunit alpha-1 (Rattus norvegicus, UniProt P62813)
# Gamma-aminobutyric acid receptor subunit alpha-1, sequence (P62813 whole entry): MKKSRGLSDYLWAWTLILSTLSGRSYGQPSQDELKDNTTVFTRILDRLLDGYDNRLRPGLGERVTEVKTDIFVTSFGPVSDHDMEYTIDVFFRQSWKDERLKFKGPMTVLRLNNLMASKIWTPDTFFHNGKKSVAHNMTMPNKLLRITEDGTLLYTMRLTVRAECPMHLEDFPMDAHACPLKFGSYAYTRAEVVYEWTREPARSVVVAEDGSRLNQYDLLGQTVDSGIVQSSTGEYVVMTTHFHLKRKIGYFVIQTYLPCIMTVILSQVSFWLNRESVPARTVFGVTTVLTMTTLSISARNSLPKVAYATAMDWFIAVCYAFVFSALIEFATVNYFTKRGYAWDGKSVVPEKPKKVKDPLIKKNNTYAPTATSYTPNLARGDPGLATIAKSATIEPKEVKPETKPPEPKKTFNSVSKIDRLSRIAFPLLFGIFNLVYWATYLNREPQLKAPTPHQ
# [16] = biological target: Voltage-dependent L-type calcium channel subunit alpha-1C (Rattus norvegicus, UniProt P22002); assay type: functional
# Also: assay procedure not described here.
# Vasopressin V2 receptor, sequence (P30518 whole entry): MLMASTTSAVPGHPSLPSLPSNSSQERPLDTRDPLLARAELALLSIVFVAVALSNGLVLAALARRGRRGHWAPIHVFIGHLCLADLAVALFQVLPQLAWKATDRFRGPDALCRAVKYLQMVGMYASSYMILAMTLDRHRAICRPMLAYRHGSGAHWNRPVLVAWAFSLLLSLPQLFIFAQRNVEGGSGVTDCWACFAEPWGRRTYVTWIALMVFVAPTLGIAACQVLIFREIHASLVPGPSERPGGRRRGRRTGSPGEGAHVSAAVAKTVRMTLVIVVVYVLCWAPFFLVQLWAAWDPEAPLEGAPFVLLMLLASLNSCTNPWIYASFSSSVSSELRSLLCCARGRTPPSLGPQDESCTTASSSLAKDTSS
# 3',5'-cyclic-AMP phosphodiesterase 4A, sequence (P27815 whole entry): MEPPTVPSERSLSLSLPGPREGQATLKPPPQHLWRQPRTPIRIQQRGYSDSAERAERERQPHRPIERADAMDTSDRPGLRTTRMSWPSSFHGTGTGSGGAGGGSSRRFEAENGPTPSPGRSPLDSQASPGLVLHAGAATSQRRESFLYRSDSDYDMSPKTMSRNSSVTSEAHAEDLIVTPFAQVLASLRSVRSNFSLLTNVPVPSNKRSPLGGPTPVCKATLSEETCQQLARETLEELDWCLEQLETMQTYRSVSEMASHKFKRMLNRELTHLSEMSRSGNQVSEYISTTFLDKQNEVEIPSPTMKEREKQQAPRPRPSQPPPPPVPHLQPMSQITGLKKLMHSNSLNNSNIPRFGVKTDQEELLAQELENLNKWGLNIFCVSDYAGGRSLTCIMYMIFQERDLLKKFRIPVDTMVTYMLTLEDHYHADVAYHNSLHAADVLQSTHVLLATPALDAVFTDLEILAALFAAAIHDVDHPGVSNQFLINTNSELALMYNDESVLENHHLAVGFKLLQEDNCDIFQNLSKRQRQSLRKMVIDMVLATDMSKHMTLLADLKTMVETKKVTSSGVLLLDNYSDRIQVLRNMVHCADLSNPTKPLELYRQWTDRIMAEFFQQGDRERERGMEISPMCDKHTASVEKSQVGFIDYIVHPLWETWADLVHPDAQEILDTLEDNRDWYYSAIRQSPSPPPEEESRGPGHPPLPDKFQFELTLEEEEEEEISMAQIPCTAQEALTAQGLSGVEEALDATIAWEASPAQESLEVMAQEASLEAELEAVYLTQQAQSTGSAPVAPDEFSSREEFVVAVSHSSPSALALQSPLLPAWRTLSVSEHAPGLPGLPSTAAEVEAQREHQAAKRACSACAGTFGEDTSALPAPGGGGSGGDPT
Structure (SMILES),AC50 (Vasopressin V2 receptor),AC50 (Prothrombin),AC50 [1],AC50 (Thromboxane A2 receptor [2]),AC50 (Thromboxane A2 receptor [3]),AC50 (Thromboxane A2 receptor [4]),AC50 [5],AC50 (Histamine H3 receptor [6]),AC50 [7],AC50 [8],AC50 [9],AC50 (D(1A) dopamine receptor),AC50 (Histamine H3 receptor [10]),AC50 (Mu-type opioid receptor),AC50 [11],AC50 [12],AC50 [13],AC50 [14],AC50 [15],AC50 [16]
C[N+]1(C)CCC(OC(=O)C(O)(c2ccccc2)C2CCCC2)C1 (configuration not stated) [GLYCOPYRRONIUM BROMIDE],> 30 µM,> 30 µM,> 30 µM,> 30 µM,> 30 µM,> 30 µM,–,–,–,–,–,–,–,–,–,–,–,–,–,–
C1CCC(C(CC2CCCCN2)C2CCCCC2)CC1 (configuration not stated) [PERHEXILINE],–,–,–,–,–,–,> 10 µM,> 30 µM,–,–,–,–,–,–,–,–,–,–,–,–
CCC1=C(C)CN(C(=O)NCCc2ccc(S(=O)(=O)NC(=O)N[C@H]3CC[C@H](C)CC3)cc2)C1=O [GLIMEPIRIDE],–,> 30 µM,> 30 µM,> 30 µM,18.5 µM,–,–,–,> 30 µM,> 30 µM,> 30 µM,> 30 µM,> 30 µM,> 30 µM,–,–,–,–,–,–
C[N+](C)(C)CCO [CHOLINE],–,> 30 µM,> 30 µM,> 30 µM,> 30 µM,–,–,–,> 30 µM,> 30 µM,> 30 µM,> 30 µM,> 30 µM,> 30 µM,–,–,–,–,–,–
CNC1Cc2ccccc2N(C)c2ccccc21 (configuration not stated) [METAPRAMINE],–,–,–,–,–,–,> 30 µM,> 30 µM,–,–,–,–,–,–,> 30 µM,> 30 µM,14 µM,–,–,–
CNC(=O)c1ccccc1Sc1ccc2c(/C=C/c3ccccn3)n[nH]c2c1 [AXITINIB],–,–,–,–,–,8.66 µM,> 30 µM,> 30 µM,–,–,–,–,–,–,> 30 µM,> 30 µM,> 30 µM,> 30 µM,–,–
COc1cc(NC(C)CCCN)c2ncccc2c1 (configuration not stated) [PRIMAQUINE],> 30 µM,> 30 µM,16.2 µM,> 30 µM,> 30 µM,> 30 µM,–,–,–,–,–,–,–,–,–,–,–,–,–,–
COc1ccc(CC(C)(C)NC[C@H](O)c2cc(O)cc3c2OCC(=O)N3)cc1 [OLODATEROL],–,–,–,–,–,–,> 30 µM,> 30 µM,–,–,–,–,–,–,> 30 µM,> 30 µM,12.8 µM,6.65 µM,–,–
Cc1nc([N+](=O)[O-])cn1-c1ccc([N+](=O)[O-])cc1 [NITREFAZOLE],> 30 µM,–,–,–,–,> 30 µM,> 30 µM,> 30 µM,–,–,–,–,–,–,> 30 µM,> 30 µM,> 30 µM,> 30 µM,> 30 µM,–
CC(C)(S)[C@@H](N)C(=O)O [PENICILLAMINE],–,> 30 µM,> 30 µM,> 30 µM,> 30 µM,–,–,–,> 30 µM,> 30 µM,> 30 µM,> 30 µM,> 30 µM,> 30 µM,–,–,–,–,–,–
CC(=O)Nc1ccc(O)cc1 [ACETAMINOPHEN],–,> 30 µM,> 30 µM,> 30 µM,> 30 µM,–,> 30 µM,> 30 µM,> 30 µM,> 30 µM,> 30 µM,–,> 30 µM,> 30 µM,–,–,–,> 30 µM,–,–
COc1cc2nc(N(C)CCCNC(=O)C3CCCO3)nc(N)c2cc1OC (configuration not stated) [ALFUZOSIN],> 30 µM,–,–,–,–,> 30 µM,–,> 30 µM,–,–,–,–,–,–,> 30 µM,> 30 µM,> 30 µM,> 30 µM,> 30 µM,> 30 µM
Nc1nc(NC2CC2)c2ncn([C@H]3C=C[C@@H](CO)C3)c2n1 [ABACAVIR],> 30 µM,–,–,–,–,> 30 µM,> 30 µM,> 30 µM,–,–,–,–,–,–,> 30 µM,> 30 µM,> 30 µM,–,> 30 µM,–
C=C[C@H]1C[N@@]2CC[C@H]1C[C@H]2[C@H](O)c1ccnc2ccc(OC)cc12 [QUININE],–,> 30 µM,> 30 µM,> 30 µM,> 30 µM,–,–,–,–,–,5.45 µM,> 30 µM,> 30 µM,8.38 µM,–,–,–,–,–,–
Cc1cn([C@H]2C[C@H](N=[N+]=[N-])[C@@H](CO)O2)c(=O)[nH]c1=O [ZIDOVUDINE],> 30 µM,> 30 µM,> 30 µM,> 30 µM,> 30 µM,> 30 µM,> 30 µM,> 10 µM,> 30 µM,> 30 µM,> 30 µM,> 30 µM,> 30 µM,> 30 µM,–,–,–,> 10 µM,> 10 µM,> 10 µM
N[C@@H]1[C@H]2CN(c3nc4c(cc3F)c(=O)c(C(=O)O)cn4-c3ccc(F)cc3F)C[C@@H]12 [TROVAFLOXACIN],–,–,–,–,–,–,> 30 µM,> 30 µM,–,–,–,–,–,–,–,–,–,> 30 µM,–,–
C[C@]12CC[C@@H]3c4ccc(O)cc4CC[C@H]3[C@@H]1C[C@@H](O)[C@@H]2O [ESTRIOL],–,> 30 µM,> 30 µM,> 30 µM,> 30 µM,–,–,–,> 30 µM,> 30 µM,> 30 µM,> 30 µM,> 30 µM,> 30 µM,–,–,–,–,–,–
COCc1c(C(C)C)nc(C(C)C)c(/C=C/[C@@H](O)C[C@@H](O)CC(=O)O)c1-c1ccc(F)cc1 [CERIVASTATIN],–,> 30 µM,21.5 µM,> 30 µM,20.1 µM,–,–,–,> 30 µM,25.2 µM,> 30 µM,> 30 µM,> 30 µM,> 30 µM,–,–,–,–,–,–
c1cnc(N2CCN(Cc3ccc4c(c3)OCO4)CC2)nc1 [PIRIBEDIL],–,–,–,–,–,–,> 30 µM,> 30 µM,–,–,–,–,–,–,> 30 µM,> 30 µM,> 30 µM,2.3 µM,–,–
CN(C)CCC=C1c2ccccc2C(C)(C)c2ccccc21,–,–,–,–,–,–,> 30 µM,25 µM,–,–,–,–,–,–,0.129 µM,4.5 µM,–,4.34 µM,–,–
CN(C)CC(c1ccc(O)cc1)C1(O)CCCCC1 (configuration not stated) [DESVENLAFAXINE],–,> 30 µM,> 30 µM,> 30 µM,> 30 µM,–,–,–,> 30 µM,> 30 µM,> 30 µM,> 30 µM,> 30 µM,28.4 µM,–,–,–,–,–,–
C[C@H]1CNCCc2ccc(Cl)cc21 [LORCASERIN],–,–,–,–,–,–,> 30 µM,> 30 µM,–,–,–,–,–,–,> 30 µM,–,–,–,–,–

# Source: ChEMBL document CHEMBL5291721, “A preclinical secondary pharmacology resource illuminates target-adverse drug reaction associations of marketed drugs” (Nat Commun, 2023)
